Data set [1] has as its system LHRH binding sites on human ovarian cancer cells (EFO-27).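 Note: Cell-associated radioactivity on confluent EFO-27 monolayers in 96-well plates, measured by microplate scintillation counting.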
Data set [2] can be described thus: In vitro metabolic stability in mouse liver homogenate at 37° C. The conditions noted are these: for remaining at 1 h, 0.3 mg/mL: female, Tac:NCr:Foxn1nu/nu, mouse, tissue homogenate, pH 7.2. The format is in vitro ADME. On the procedure:
Livers from 10 female Tac:NCr:Foxn1^nu/nu mice were excised, rinsed with ice cold PBS (no Ca^++ or Mg^++) and weighed. The tissues were minced with scissors in Petri dishes on ice with Tris buffered saline (Pierce BupH™ Tris buffered saline packs, #28376; 25 mM Tris, 150 mM NaCl, pH 7.2). After mincing, the tissues were dounce homogenized, and the total volume adjusted with ice cold Tris buffer (4 mL for every gram of excised tissue). The homogenate was centrifuged at ˜4000×g for 10 min at 4° C. The supernatants were aliquoted into Eppendorf tubes on ice (200 and 100 μl volumes) and stored at −80° C. Kidney homogenates were similarly prepared. […] The mixture was centrifuged at 4° C. for 20 min at 20,000×g to precipitate the protein; 10 μL (˜7.6 μCi) of the supernatant was injected into the HPLC for the analysis. […] Peaks at these retention times were also observed in the in vivo plasma sample (FIG. 1). […] After 0 and 60 min, the sample was removed from the incubator, immediately cooled on ice and 2 μL of 10 mM EDTA and 0.2 mL of ice-cooled MeOH were added, mixing after each addition. The proteins in the sample were separated by centrifugation at 14,000 rpm for 20 min. The supernatant was harvested and, in the samples spiked with the ^177Lu-analog, the radioactivity was measured using a Capintec dose calibrator to determine recovery. The sample was then analyzed by HPLC. […] After 0 and 60 min, the sample was removed from the incubator, immediately cooled on ice and 2 μL of 10 mM EDTA and 0.24 mL of ice-cooled methanol was added, mixing after each addition. The proteins in the sample were separated by centrifugation at 14,000 rpm for 20 min. The supernatant was collected and analyzed by LC/MS as described earlier herein.

Data set [3] has as its target LHRH receptor (LHRH binding sites) on EFO-27 human ovarian cancer cells (human). As to the kind of experiment: competition with [125I-Tyr8]BRU-2477 for binding to EFO-27 cells.
[4] abbreviates: Table 19: analogs used in the stabilization studies.

Read-outs that look alike come from different tables or passages of the source. Non-standard residues stand in square brackets, D forms with d. Residues, ends and D or L forms follow the SMILES beside them. *: point of attachment. X1 = NC(=O)NNC(=O)[C@@H]1CCCN1C[C@H](Cc1ccc(C(=O)c2ccccc2)cc1)N*; DOTA = O=C(O)CN1CCN(CC(=O)O)CCN(CC(=O)*)CCN(CC(=O)O)CC1; d2Nal = N[C@H](Cc1ccc2ccccc2c1)C(=O)O; pGlu = O=C1CC[C@@H](C(=O)O)N1; DO3A10CM = not defined here; Bpa4 = non-natural residue; azaGly = NNC(=O)O

As usually defined, the EC50 is the concentration needed to bring the measured effect to its halfway point. Lower therefore signals an effect from little substance. The molecule `N=C(N)NCCC[C@H](NC(=O)[C@@H](Cc1ccc2ccccc2c1)NC(=O)CN1CCN(CC(=O)O)CCN(CC(=O)O)CCN(CC(=O)O)CC1)C(=O)N[C@@H](Cc1c[nH]c2ccccc12)C(=O)N[C@@H](CO)C(=O)N[C@@H](Cc1c[nH]cn1)C(=O)N[C@H](CCCNC(=N)N)C(=O)N[C@@H](Cc1c[nH]c2ccccc12)C(=O)N[C@@H](Cc1ccc(C(=O)c2ccccc2)cc1)CN1CCC[C@H]1C(=O)NNC(N)=O` [BRU-3081] ({DOTA}-[d2Nal]RWSH[dR]W-X1) came in with an EC50 in data set [1] (setting [4]) of 300 nM. In addition, the “metabolism in liver homogenate” value in data set [2] was “no metabolism was observed”.

Broadly, the share remaining is the share of the starting amount still present when the sample was taken. A low value points to more turnover. `N=C(N)NCCC[C@@H](NC(=O)[C@H](Cc1c[nH]cn1)NC(=O)[C@H](CO)NC(=O)[C@H](Cc1c[nH]c2ccccc12)NC(=O)[C@H](Cc1c[nH]cn1)NC(=O)[C@@H]1CCC(=O)N1)C(=O)N[C@@H](Cc1c[nH]c2ccccc12)C(=O)N[C@@H](Cc1ccc(O)cc1)C(=O)N1C[C@@H](N)C[C@H]1C(=O)NNC(N)=O` [BRU-3123] (HELM PEPTIDE1{[Glp].H.W.S.H.[dR].W.Y.[N[C@H]1C[C@@H](C(=O)[*:2])N([*:1])C1].[O=C(NN[*:1])[*:2]].[am]}$$$$V2.0) gave an EC50 in data set [1] (setting [4]) of 990 nM. In data set [2], this molecule registered a fraction remaining at 1 h, 0.3 mg/mL of 100%.

In data set [1] (setting [4]), `N=C(N)NCCC[C@@H](NC(=O)[C@H](Cc1c[nH]cn1)NC(=O)[C@H](CO)NC(=O)[C@H](Cc1c[nH]c2ccccc12)NC(=O)[C@H](Cc1c[nH]cn1)NC(=O)[C@@H]1CCC(=O)N1)C(=O)N[C@@H](Cc1c[nH]c2ccccc12)C(=O)N[C@@H](Cc1ccc(O)cc1)CN1CCC[C@H]1C(=O)NNC(N)=O` [BRU-3122] came in with an EC50 of 3130 nM. The molecule further registered a share remaining at 1 h, 0.3 mg/mL in data set [2] of 100%.

In data set [2], `N=C(N)NCCC[C@H](NC(=O)[C@@H](Cc1ccc2ccccc2c1)NC(=O)CN1CCN(CC(=O)O)CCN(CC(=O)O)CCN(CC(=O)O)CC1)C(=O)N[C@@H](Cc1c[nH]c2ccccc12)C(=O)N[C@@H](CO)C(=O)N[C@@H](Cc1c[nH]cn1)C(=O)N[C@H](CCCNC(=N)N)C(=O)N[C@@H](Cc1c[nH]c2ccccc12)C(=O)N[C@@H](Cc1ccc(C(=O)c2ccccc2)cc1)C(=O)N1CC[C@H]1C(=O)NNC(N)=O` [Lu-BRU-2993] came in with a share remaining at 1 h, 0.3 mg/mL of 14.9 ± 13.2%.

As to `N=C(N)NCCC[C@@H](NC(=O)[C@H](Cc1c[nH]cn1)NC(=O)[C@H](CO)NC(=O)[C@H](Cc1c[nH]c2ccccc12)NC(=O)[C@H](Cc1c[nH]cn1)NC(=O)[C@@H]1CCC(=O)N1)C(=O)N[C@@H](Cc1c[nH]c2ccccc12)C(=O)N[C@@H](Cc1ccc(O)cc1)C(=O)N1CCC[C@H]1C(=O)NNC(N)=O` [BRU-2477, pGlu-His-Trp-Ser-His-Darg-Trp-Tyr-Pro-azaGly-NH2, reference compound] (HELM PEPTIDE1{[Glp].H.W.S.H.[dR].W.Y.P.[O=C(NN[*:1])[*:2]].[am]}$$$$V2.0), the EC50 was 740 nM in data set [1] (EFO-27 cells, competition with [125I-Tyr8]BRU-2477, 90 min) and 840 nM in data set [1] (setting [4]). In data set [2], this molecule returned an amount remaining at 1 h, 0.3 mg/mL of 11.9 ± 2.4%.

The molecule `N=C(N)NCCC[C@H](NC(=O)[C@@H](Cc1ccc2ccccc2c1)NC(=O)CN1CCN(CC(=O)O)CCN(CC(=O)O)CCN(CC(=O)O)CC1)C(=O)N[C@@H](Cc1c[nH]c2ccccc12)C(=O)N[C@@H](CO)C(=O)N[C@@H](Cc1c[nH]cn1)C(=O)N[C@H](CCCNC(=N)N)C(=O)N[C@@H](Cc1c[nH]c2ccccc12)C(=O)N[C@@H](Cc1ccc(C(=O)c2ccccc2)cc1)C(=O)N1CCCC[C@H]1C(=O)NNC(N)=O` [Lu-BRU-2996] came in with a fraction remaining at 1 h, 0.3 mg/mL in data set [2] of 71.7 ± 2.9%.

Consider `N=C(N)NCCC[C@@H](NC(=O)[C@H](Cc1c[nH]cn1)NC(=O)[C@H](CO)NC(=O)[C@H](Cc1c[nH]c2ccccc12)NC(=O)[C@H](Cc1c[nH]cn1)NC(=O)[C@@H]1CCC(=O)N1)C(=O)N[C@@H](Cc1c[nH]c2ccccc12)C(=O)N[C@@H](Cc1ccc(O)cc1)C(=O)N1CSC[C@H]1C(=O)NNC(N)=O` [BRU-3124] (HELM PEPTIDE1{[Glp].H.W.S.H.[dR].W.Y.[O=C([C@@H]1CSCN1[*:1])[*:2]].[O=C(NN[*:1])[*:2]].[am]}$$$$V2.0), for which the share remaining at 1 h, 0.3 mg/mL in data set [2] is 38.7 ± 5.9%.

As for `N=C(N)NCCC[C@H](NC(=O)[C@@H](Cc1ccc2ccccc2c1)NC(=O)CN1CCN(CC(=O)O)CCN(CC(=O)O)CCN(CC(=O)O)CC1)C(=O)N[C@@H](Cc1c[nH]c2ccccc12)C(=O)N[C@@H](CO)C(=O)N[C@@H](Cc1c[nH]cn1)C(=O)N[C@H](CCCNC(=N)N)C(=O)N[C@@H](Cc1c[nH]c2ccccc12)C(=O)N[C@@H](Cc1ccc(C(=O)c2ccccc2)cc1)C(=O)N1CSC[C@H]1C(N)=O` [BRU-3072], in data set [1] (BRU-2441 vs BRU-2439, BRU-2666 vs Sar1 analog, BRU-3072 vs Pro9 analog), the “times more potent than the comparator analog” value is on record as about 2.5. The “metabolism in liver homogenate” value in data set [2] (37° C. for 60 min, Lu complexes of DO3A10CM peptides, unlabeled BRU-2477 derivatives) is on record as “no metabolism was observed”.

Turning to `N=C(N)NCCC[C@H](NC(=O)[C@@H](Cc1ccc2ccccc2c1)NC(=O)CN1CCN(CC(=O)O)CCN(CC(=O)O)CCN(CC(=O)O)CC1)C(=O)N[C@@H](Cc1c[nH]c2ccccc12)C(=O)N[C@@H](CO)C(=O)N[C@@H](Cc1c[nH]cn1)C(=O)N[C@H](CCCNC(=N)N)C(=O)N[C@@H](Cc1c[nH]c2ccccc12)C(=O)N[C@@H](Cc1ccc(C(=O)c2ccccc2)cc1)CN1CCC[C@H]1C(=O)NNC(N)=O` [Lu-BRU-3081] ({DOTA}-[d2Nal]RWSH[dR]W-X1), the amount remaining at 1 h, 0.3 mg/mL in data set [2] was found to be 100%.

Regarding `N=C(N)NCCC[C@H](NC(=O)[C@@H](Cc1ccc2ccccc2c1)NC(=O)CN1CCN(CC(=O)O)CCN(CC(=O)O)CCN(CC(=O)O)CC1)C(=O)N[C@@H](Cc1c[nH]c2ccccc12)C(=O)N[C@@H](CO)C(=O)N[C@@H](Cc1c[nH]cn1)C(=O)N[C@H](CCCNC(=N)N)C(=O)N[C@@H](Cc1c[nH]c2ccccc12)C(=O)N[C@@H](Cc1ccc(C(=O)c2ccccc2)cc1)C(=O)N1C[C@H](N)C[C@H]1C(=O)NNC(N)=O` [BRU-2995], in data set [1] (setting [4]), the EC50 amounted to 410 nM. Besides, the “metabolism in liver homogenate” value in data set [2] is listed as “no metabolism was observed”.

On to `N=C(N)NCCC[C@H](NC(=O)[C@@H](Cc1ccc2ccccc2c1)NC(=O)CN1CCN(CC(=O)O)CCN(CC(=O)O)CCN(CC(=O)O)CC1)C(=O)N[C@@H](Cc1c[nH]c2ccccc12)C(=O)N[C@@H](CO)C(=O)N[C@@H](Cc1c[nH]cn1)C(=O)N[C@H](CCCNC(=N)N)C(=O)N[C@@H](Cc1c[nH]c2ccccc12)C(=O)N[C@@H](Cc1ccc(C(=O)c2ccccc2)cc1)C(=O)N1C[C@H](N)C[C@H]1C(=O)NNC(N)=O` [Lu-BRU-2995], for which the fraction remaining at 1 h, 0.3 mg/mL in data set [2] was found to be 98.7 ± 0.1%.

Turning to `N=C(N)NCCC[C@H](NC(=O)[C@@H](Cc1ccc2ccccc2c1)NC(=O)CN1CCN(CC(=O)O)CCN(CC(=O)O)CCN(CC(=O)O)CC1)C(=O)N[C@@H](Cc1c[nH]c2ccccc12)C(=O)N[C@@H](CO)C(=O)N[C@@H](Cc1c[nH]cn1)C(=O)N[C@H](CCCNC(=N)N)C(=O)N[C@@H](Cc1c[nH]c2ccccc12)C(=O)N[C@@H](Cc1ccc(C(=O)c2ccccc2)cc1)C(=O)N1C[C@H](F)C[C@H]1C(=O)NNC(N)=O` [Lu-BRU-2994], in data set [1] (Table 22, unit inferred), the EC50 came to 600 nM. In data set [2], this molecule gave a share remaining at 1 h, 0.3 mg/mL of 45.7 ± 1.2%.

For the molecule [pGlu]HWSH[dR]WYP[azaGly]-NH2 (also: reduced amide bond Ψ(CH2N) between Tyr8 and Pro9) [BRU-3122], the EC50 in data set [3] is 3.13 µM.

B1: BRU-3064 (peptide)
peptide: DO3A10CM-[d2Nal]RWSH[dR]W[Bpa4]-OH
modifications: reading uncertain; also: printed as DO3A10CM-Dnal2-Arg-Trp-Ser-His-Darg-Trp-Bpa4-OH
For the molecule B1, the EC50 in data set [3] is 0.72 µM.

Turning to XRWSHXW (as printed: DO3A10CM-Dnal2-Arg-Trp-Ser-His-Darg-Trp-OH) [BRU-3046], the concentration for a half-maximal effect (EC50) in data set [3] was found to be 15.8 µM.

These data come from patent US20120045393A1 (priority 2009, published 2012).
